Experimental data published in article PMC10049354, “Anti-Inflammatory Effects and Photo- and Neuro-Protective Properties of BIO203, a New Amide Conjugate of Norbixin, in Development for the Treatment of Age-Related Macular Degeneration (AMD)” (International Journal of Molecular Sciences, 2023).

How the values were obtained:
[1] = tested on: primary porcine RPE cells; experiment: RPE phototoxicity: photoprotection of RPE cells exposed to A2E and blue light; type: cell-based, pig; settings: all concentrations from 10 to 20 μM; A2E 30 μM + blue light
Method: RPE cells were obtained from pig eyes, as previously described. RPE cells were seeded on a 96-well plate at a density of 1.5 × 10^5 cells/cm^2 in DMEM 2% FCS. BIO201, BIO203, or its pure enantiomers were added in increasing concentrations to the culture medium 48 h before illumination. A2E was added to the medium at a final concentration of 30 μM, and 19 h later, blue-light illumination was performed for 50 min using a 96 blue-led device (Durand, St Clair de la Tour, France) emitting at 470 nm (1440 mcd, 8.6 mA). Just before illumination, the culture medium was replaced by a modified DMEM without any photosensitizer and with 2% FCS. Twenty-four hours after blue-light irradiation, all cell nuclei were stained with Hoechst 33342, and nuclei of dead cells with ethidium homodimer 2, fixed with paraformaldehyde (4% in PBS, 10 min) and 9 pictures per well were captured using a fluorescence microscope (Nikon TiE) equipped with a CoolSNAP HQ2 camera and driven by Metamorph Premier On-Line program. Quantification of live cells was performed using Metamorph Premier Off-Line and a homemade program by subtraction of dead cells from all cells. For cytokines mRNA analysis, RPE cells were seeded in 24-well plates and left untreated or treated with A2E or BIO203 alone or A2E plus BIO203. After 48 h, cells were lysed using the lysis buffer from the NucleoSpin® RNA kit, and the samples were stored at −80 °C.

[2] = tested on: albino rats exposed to blue-light-induced photoreceptor degeneration; experiment: Blue-light damage (BLD) study in albino rats: retinal histology (photoreceptor layers); type: in vivo, rat; settings: 50 mg/kg, four IP administrations; 6 h blue-light exposure; p < 0.0001
Method: At the end of the measurement period on Day 7, rats were euthanized by an intraperitoneal injection of pentobarbital. Immediately after euthanasia, both eyeballs were sampled, fixed in Davidson’s solution, and processed for histology. Sections (5 to 7 µm thick) were performed along the vertical meridian and stained with Haematoxylin/Eosin stain. The vertical meridian included the optic nerve. […] The thickness of the outer nuclear layer was measured on each point. […] Histology and photoreceptor counting in mice were performed as previously described.
(§1) Sixty-four animals were selected based on good health and on scotopic electroretinogram performed before induction when the A-wave amplitude of both eyes was in the range of the global mean (all animals) of A-wave amplitude ± 1.96 SD. Animals were then randomized into the study groups using a macro function in Excel® software based on the A-wave amplitude of both eyes (mean value). On Day 0, BIO203, negative controls, and comparator (N-tert-Butyl-a-phenylnitrone (PBN)) were intraperitoneally injected using a 25 G needle in rats that have been dark-adapted for 36 h. Individually housed rats were then exposed for 6 h (±5 min) to a continuous blue, fluorescent light (400–540 nm) in clear plastic cages. After exposure and administration, the rats were placed in a dark room for 24 h (±1 h) and then were returned to rearing cyclic light conditions.

[3] = tested on: albino rats exposed to blue-light-induced photoreceptor degeneration; experiment: Blue-light damage (BLD) study in albino rats: ERG; type: in vivo, rat; settings: 50 mg/kg, four IP administrations; positive controls
Method: The ERG in rats was performed using the electrophysiological system RETI-animal® from Roland Consult. ERG was recorded on both eyes from overnight dark-adapted animals. Rats were anesthetized by an intramuscular injection of a mix of Rompun® (xylazine)/Imalgene® (ketamine) before ERG measurement. Ten to fifteen minutes before measurement, one drop of Mydriaticum® (0.5% tropicamide) was instilled for pupillary dilatation. The A-wave and B-wave implicit times (ms) and amplitudes (µV) were measured for each ERG. The B-wave amplitude (value and %) was given as informative data. ERG parameters: Ganzfeld Q450C, Color: white maximum, Maximum intensity: 3 cd/m^2 (0 dB); Duration 0.24 ms; number of flashes: 1, Filter: 50 Hz, Impedance threshold: 50 kΩ. For scotopic ERGs, the A-wave amplitudes were measured from the baseline to the peak of the negative potential, whereas B-wave amplitudes were measured from the trough of the A-wave to the peak of the positive potential. The recordings obtained from these analyses were tabulated and normalized (%) for each eye. Group means, standard deviation, and median values were calculated, considering each eye from one animal as a separate value. ERG recordings in mice were performed as previously described.
as §1

## CO[C@@H]1CCCN(C(=O)/C=C/C(C)=C/C=C/C(C)=C/C=C/C=C(C)/C=C/C=C(C)\C=C\C(=O)O)C1 [BIO203-R]
[1]
  protective activity compared with BIO203 (racemate): same protective activity as BIO203

## CO[C@H]1CCCN(C(=O)/C=C/C(C)=C/C=C/C(C)=C/C=C/C=C(C)/C=C/C=C(C)\C=C\C(=O)O)C1 [BIO203-S]
[1]
  protective activity compared with BIO203 (racemate): same protective activity as BIO203

## CC(C)(C)[N+]([O-])=Cc1ccccc1 [PBN, N-tert-Butyl-a-phenylnitrone, reference compound]
[2]
  preservation of retinal structure (photoreceptor layers): partially preserved the retinal structure
[3]
  effect on visual function (ERG A-wave and B-wave): protected the visual functions
